Data published in patent publication US8802597B2, “Herbicidal pyrimidines” (E I du Pont de Nemours and Company, priority 2003, dated 2014).

Key:
Assay type in all cases: in vivo
[1] = system: bermudagrass (Cynodon dactylon); assay: Test C pre/postemergence; details: Preemergence
Text: (§1) Seeds or nutlets of plant species selected from bermudagrass (Cynodon dactylon), Surinam grass (Brachiaria decumbens), cocklebur (Xanthium strumarium), corn (Zea mays), crabgrass (Digitaria sanguinalis), woolly cupgrass (Eriochloa villosa), giant foxtail (Setaria faberii), goosegrass (Eleusine indica), johnsongrass (Sorghum halepense), kochia (Kochia scoparia), lambsquarters (Chenopodium album), morningglory (Ipomoea coccinea), eastern black nightshade (Solanum ptycanthum), yellow nutsedge (Cyperus esculentus), pigweed (Amaranthus retroflexus), common ragweed (Ambrosia elatior), soybean (Glycine max), common (oilseed) sunflower (Helianthus annuus), and velvetleaf (Abutilon theophrasti) were planted and treated preemergence with test chemicals formulated in a non-phytotoxic solvent mixture which included a surfactant.
(§2) At the same time, plants selected from these crop and weed species and also winter barley (Hordeum vulgare), blackgrass (Alopecurus myosuroides), canarygrass (Phalaris minor), chickweed (Stellaria media), downy brome (Bromus tectorum), green foxtail (Setaria viridis), Italian ryegrass (Lolium multiflorum), wheat (Triticum aestivum), wild oat (Avena fatua) and windgrass (Apera spica-venti) were treated with postemergence applications of some of the test chemicals formulated in the same manner. Plants ranged in height from 2 to 18 cm (1- to 4-leaf stage) for postemergence treatments. Plant species in the flooded paddy test consisted of rice (Oryza sativa), umbrella sedge (Cyperus difformis), duck salad (Heteranthera limosa) and barnyardgrass (Echinochloa crus-galli) grown to the 2-leaf stage for testing. Treated plants and controls were maintained in a greenhouse for 12 to 14 days, after which time all species were compared to controls and visually evaluated. Plant response ratings, summarized in Table C, are based on a scale of 0 to 100 where 0 is no effect and 100 is complete control. A dash (-) response means no test result.

[2] = system: lambsquarters (Chenopodium album); assay: Test C pre/postemergence; details: Preemergence
Text: as §1, §2

[3] = system: johnsongrass (Sorghum halepense); assay: Test C pre/postemergence; details: Preemergence
Text: as §1, §2

[4] = system: soybean (Glycine max); assay: Test C pre/postemergence; details: Preemergence
Text: as §1, §2

[5] = system: giant foxtail (Setaria faberi); assay: Test A pre/postemergence
In short: (§3)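 After planting in loam and sand, species received test chemical as preemergence soil spray; postemergence spray went on 2–10 cm plants at 1–2 leaves at the same time. Evaluation: visual injury, ~10 d, 0 no effect to 100 complete control.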

[6] = system: velvetleaf (Abutilon theophrasti); assay: Test A pre/postemergence
In short: as §3

[7] = system: barnyardgrass (Echinochloa crus-galli); assay: Test A pre/postemergence
In short: as §3

[8] = system: morningglory (Ipomoea spp.); assay: Test A pre/postemergence
In short: as §3

[9] = system: crabgrass (Digitaria sanguinalis); assay: Test A pre/postemergence
In short: as §3

[10] = system: redroot pigweed (Amaranthus retroflexus); assay: Test A pre/postemergence
In short: as §3

[11] = 31 g ai/ha, scale 0 to 100, 0 no effect, 100 complete control
[12] = 62 g ai/ha, scale 0 to 100, 0 no effect, 100 complete control
[13] = 16 g ai/ha, scale 0 to 100, 0 no effect, 100 complete control
[14] = Postemergence, 125 g ai/ha, 0 to 100 scale (0 no effect, 100 complete control)
[15] = Postemergence, 500 g ai/ha, 0 to 100 scale (0 no effect, 100 complete control)
[16] = Preemergence, 125 g ai/ha, 0 to 100 scale where 0 is no effect and 100 is complete control, approximately ten days
[17] = Preemergence, 500 g ai/ha, 0 to 100 scale where 0 is no effect and 100 is complete control, approximately ten days

CCOC(=O)Cc1nc(C2CC2)nc(N)c1Br [Compound 12]
Plant response rating, Bermudagrass [1, 11]: 0 | Plant response rating, Bermudagrass [1, 12]: 0 | Plant response rating, Bermudagrass ([1]; 125 g ai/ha, scale 0 to 100): 0 | Plant response rating, Bermudagrass ([1]; 250 g ai/ha, scale 0 to 100): 20 | Plant response rating, Lambsquarters [2, 11]: 0 | Plant response rating, Lambsquarters [2, 12]: 10 | Plant response rating, Lambsquarters ([2]; 125 g ai/ha, scale 0 to 100): 40 | Plant response rating, Lambsquarters ([2]; 250 g ai/ha, scale 0 to 100): 70 | Plant response rating, Johnsongrass [3, 11]: 0 | Plant response rating, Johnsongrass [3, 12]: 0 | Plant response rating, Johnsongrass ([3]; 125 g ai/ha, scale 0 to 100): 5 | Plant response rating, Johnsongrass ([3]; 250 g ai/ha, scale 0 to 100): 5 | Plant response rating, Soybean [4, 12]: 50 | Plant response rating, Soybean ([4]; 250 g ai/ha, scale 0 to 100): 70

COC(=O)Cc1nc(C2CC2)nc(N)c1Br [Compound 13]
Plant response rating, Bermudagrass [1, 11]: 0 | Plant response rating, Bermudagrass [1, 12]: 0 | Plant response rating, Bermudagrass ([1]; 125 g ai/ha, scale 0 to 100): 0 | Plant response rating, Bermudagrass ([1]; 250 g ai/ha, scale 0 to 100): 0 | Plant response rating, Lambsquarters [2, 11]: 50 | Plant response rating, Lambsquarters [2, 12]: 85 | Plant response rating, Lambsquarters ([2]; 125 g ai/ha, scale 0 to 100): 90 | Plant response rating, Lambsquarters ([2]; 250 g ai/ha, scale 0 to 100): 90 | Plant response rating, Johnsongrass [3, 11]: 0 | Plant response rating, Johnsongrass [3, 12]: 0 | Plant response rating, Johnsongrass ([3]; 125 g ai/ha, scale 0 to 100): 5 | Plant response rating, Johnsongrass ([3]; 250 g ai/ha, scale 0 to 100): 45 | Plant response rating, Soybean [4, 11]: 0 | Plant response rating, Soybean [4, 12]: 60 | Plant response rating, Soybean ([4]; 125 g ai/ha, scale 0 to 100): 90 | Plant response rating, Soybean ([4]; 250 g ai/ha, scale 0 to 100): 90

Nc1nc(C2CC2)nc(C=O)c1Br [Compound 26]
pest or weed control at 62 g/ha ([1]; Cynodon dactylon, pre-emergence, 62 g ai/ha, scale 0 to 100, 0 no effect, 100 complete control, read-out: Plant response rating, Bermudagrass): 0% | pest or weed control at 125 g/ha ([1]; Cynodon dactylon, pre-emergence, 125 g ai/ha, scale 0 to 100, read-out: Plant response rating, Bermudagrass): 0% | pest or weed control at 250 g/ha ([1]; Cynodon dactylon, pre-emergence, 250 g ai/ha, scale 0 to 100, read-out: Plant response rating, Bermudagrass): 0% | pest or weed control at 500 g/ha ([1]; Cynodon dactylon, pre-emergence, 500 g ai/ha, scale 0 to 100, read-out: Plant response rating, Bermudagrass): 0% | pest or weed control at 62 g/ha ([2]; Chenopodium album, pre-emergence, 62 g ai/ha, scale 0 to 100, 0 no effect, 100 complete control, read-out: Plant response rating, Lambsquarters): 10% | pest or weed control at 500 g/ha ([2]; Chenopodium album, pre-emergence, 500 g ai/ha, scale 0 to 100, read-out: Plant response rating, Lambsquarters): 90% | pest or weed control at 62 g/ha ([3]; Sorghum halepense, pre-emergence, 62 g ai/ha, scale 0 to 100, 0 no effect, 100 complete control, read-out: Plant response rating, Johnsongrass): 0% | pest or weed control at 250 g/ha ([3]; Sorghum halepense, pre-emergence, 250 g ai/ha, scale 0 to 100, read-out: Plant response rating, Johnsongrass): 0% | pest or weed control at 500 g/ha ([3]; Sorghum halepense, pre-emergence, 500 g ai/ha, scale 0 to 100, read-out: Plant response rating, Johnsongrass): 100% | plant injury at 62 g/ha ([4]; Glycine max, pre-emergence, 62 g ai/ha, scale 0 to 100, 0 no effect, 100 complete control, read-out: Plant response rating, Soybean): 0% | plant injury at 125 g/ha ([4]; Glycine max, pre-emergence, 125 g ai/ha, scale 0 to 100, read-out: Plant response rating, Soybean): 10% | plant injury at 250 g/ha ([4]; Glycine max, pre-emergence, 250 g ai/ha, scale 0 to 100, read-out: Plant response rating, Soybean): 10% | plant injury at 500 g/ha ([4]; Glycine max, pre-emergence, 500 g ai/ha, scale 0 to 100, read-out: Plant response rating, Soybean): 20%

CCOC(=O)C(Cl)c1nc(C2CC2)nc(N)c1Br (stereo not shown) [Compound 31]
Plant response rating, Bermudagrass [1, 11]: 0 | Plant response rating, Bermudagrass [1, 12]: 0 | Plant response rating, Bermudagrass ([1]; 125 g ai/ha, scale 0 to 100): 0 | Plant response rating, Bermudagrass ([1]; 250 g ai/ha, scale 0 to 100): 0 | Plant response rating, Lambsquarters [2, 11]: 0 | Plant response rating, Lambsquarters [2, 12]: 40 | Plant response rating, Lambsquarters ([2]; 125 g ai/ha, scale 0 to 100): 40 | Plant response rating, Lambsquarters ([2]; 250 g ai/ha, scale 0 to 100): 80 | Plant response rating, Johnsongrass [3, 11]: 0 | Plant response rating, Johnsongrass [3, 12]: 0 | Plant response rating, Johnsongrass ([3]; 125 g ai/ha, scale 0 to 100): 0 | Plant response rating, Johnsongrass ([3]; 250 g ai/ha, scale 0 to 100): 5 | Plant response rating, Soybean [4, 11]: 0 | Plant response rating, Soybean [4, 12]: 5 | Plant response rating, Soybean ([4]; 125 g ai/ha, scale 0 to 100): 15 | Plant response rating, Soybean ([4]; 250 g ai/ha, scale 0 to 100): 80

CCOC(=O)Cc1nc(C2CC2)nc(N=CN(C)C)c1Br [Compound 33]
Plant response rating, Bermudagrass [1, 12]: 0 | Plant response rating, Bermudagrass ([1]; 125 g ai/ha, scale 0 to 100): 0 | Plant response rating, Bermudagrass ([1]; 250 g ai/ha, scale 0 to 100): 0 | Plant response rating, Bermudagrass ([1]; 500 g ai/ha, scale 0 to 100): 0 | Plant response rating, Lambsquarters ([2]; 250 g ai/ha, scale 0 to 100): 85 | Plant response rating, Johnsongrass [3, 12]: 0 | Plant response rating, Johnsongrass ([3]; 125 g ai/ha, scale 0 to 100): 5 | Plant response rating, Johnsongrass ([3]; 250 g ai/ha, scale 0 to 100): 10 | Plant response rating, Johnsongrass ([3]; 500 g ai/ha, scale 0 to 100): 40 | Plant response rating, Soybean [4, 12]: 0 | Plant response rating, Soybean ([4]; 125 g ai/ha, scale 0 to 100): 30 | Plant response rating, Soybean ([4]; 250 g ai/ha, scale 0 to 100): 80 | Plant response rating, Soybean ([4]; 500 g ai/ha, scale 0 to 100): 90

CCOC(=O)c1nc(C2CC2)nc(N=CN(C)C)c1Br [Compound 40]
Plant response rating, Bermudagrass [1, 12]: 0 | Plant response rating, Bermudagrass ([1]; 125 g ai/ha, scale 0 to 100): 0 | Plant response rating, Bermudagrass ([1]; 250 g ai/ha, scale 0 to 100): 0 | Plant response rating, Bermudagrass ([1]; 500 g ai/ha, scale 0 to 100): 70 | Plant response rating, Lambsquarters [2, 12]: 100 | Plant response rating, Lambsquarters ([2]; 125 g ai/ha, scale 0 to 100): 100 | Plant response rating, Lambsquarters ([2]; 250 g ai/ha, scale 0 to 100): 100 | Plant response rating, Lambsquarters ([2]; 500 g ai/ha, scale 0 to 100): 100 | Plant response rating, Johnsongrass [3, 12]: 0 | Plant response rating, Johnsongrass ([3]; 125 g ai/ha, scale 0 to 100): 80 | Plant response rating, Johnsongrass ([3]; 250 g ai/ha, scale 0 to 100): 80 | Plant response rating, Johnsongrass ([3]; 500 g ai/ha, scale 0 to 100): 95 | Plant response rating, Soybean [4, 12]: 10 | Plant response rating, Soybean ([4]; 125 g ai/ha, scale 0 to 100): 40 | Plant response rating, Soybean ([4]; 250 g ai/ha, scale 0 to 100): 90 | Plant response rating, Soybean ([4]; 500 g ai/ha, scale 0 to 100): 95

CCCOC(=O)c1nc(C2CC2)nc(N)c1Cl [Compound 75]
Plant response rating, Bermudagrass [1, 13]: 0 | Plant response rating, Bermudagrass [1, 11]: 0 | Plant response rating, Bermudagrass [1, 12]: 0 | Plant response rating, Bermudagrass ([1]; 125 g ai/ha, scale 0 to 100): 20 | Plant response rating, Lambsquarters [2, 13]: 70 | Plant response rating, Lambsquarters [2, 11]: 75 | Plant response rating, Lambsquarters [2, 12]: 80 | Plant response rating, Lambsquarters ([2]; 125 g ai/ha, scale 0 to 100): 100 | Plant response rating, Johnsongrass [3, 13]: 0 | Plant response rating, Johnsongrass [3, 11]: 0 | Plant response rating, Johnsongrass [3, 12]: 50 | Plant response rating, Johnsongrass ([3]; 125 g ai/ha, scale 0 to 100): 55 | Plant response rating, Soybean [4, 13]: 55 | Plant response rating, Soybean [4, 11]: 60 | Plant response rating, Soybean [4, 12]: 100 | Plant response rating, Foxtail, Giant [5, 14]: 90 | Plant response rating, Foxtail, Giant [5, 15]: 90 | Plant response rating, Foxtail, Giant [5, 16]: 75 | Plant response rating, Foxtail, Giant [5, 17]: 90 | Plant response rating, Velvetleaf [6, 14]: 85 | Plant response rating, Velvetleaf [6, 15]: 100 | Plant response rating, Velvetleaf [6, 16]: 80 | Plant response rating, Velvetleaf [6, 17]: 95 | Plant response rating, Barnyardgrass [7, 14]: 85 | Plant response rating, Barnyardgrass [7, 15]: 90 | Plant response rating, Barnyardgrass [7, 16]: 70 | Plant response rating, Barnyardgrass [7, 17]: 95 | Plant response rating, Morningglory [8, 14]: 90 | Plant response rating, Morningglory [8, 15]: 90 | Plant response rating, Morningglory [8, 16]: 95 | Plant response rating, Morningglory [8, 17]: 100 | Plant response rating, Crabgrass [9, 14]: 80 | Plant response rating, Crabgrass [9, 15]: 90 | Plant response rating, Crabgrass [9, 16]: 85 | Plant response rating, Crabgrass [9, 17]: 90 | Plant response rating, Pigweed [10, 14]: 90 | Plant response rating, Pigweed [10, 15]: 100 | Plant response rating, Pigweed [10, 16]: 90 | Plant response rating, Pigweed [10, 17]: 95
